Patent US10336792B2, “Antimicrobial peptide dendrimers” (priority 2014, dated 2019)

Assays:
[1] = test system: P. aeruginosa PA01 (WT); type: cell-based, Pseudomonas aeruginosa
[2] = test system: P. aeruginosa PT1482 (A-), PT1485 (A-B-), PT1149 (A-B-C-algC), PT331 (Z61) (LPS mutants); type: cell-based, Pseudomonas aeruginosa; conditions: MH medium, 12-18 h
[3] = test system: PAO1; type: cell-based, Pseudomonas aeruginosa; conditions: PAO1, MH medium + 30% human serum
[4] = test system: Pseudomonas aeruginosa (strain PA01); type: cell-based; conditions: 25 μg/mL; 0, 1, 3, 6, 8, 24 h
Method: Cell viability was assayed against Pseudomonas aeruginosa (strain PA01). A colony of bacteria was grown in LB-medium overnight at 37° C. The concentration was quantified by measuring absorbance at 600 nm and diluted to OD600=0.1 (1×10^8 CFU/mL). The samples were prepared as stock solutions of 1 mg mL^−1 in H2O and diluted in LB to a concentration of 50 μg/mL in a 96-well microtiterplate (TPP, untreated). The sample solutions (50 μL) were mixed with the diluted bacterial suspension with an OD600 nm of 0.001 (50 μL). […] The plates were incubated at 37° C. for 1, 3, 6, 8 and 24 h. Each time point was assayed on a separate plate. For each test, two columns of the plate were kept for sterility control (SC, broth only) and growth control (GC, broth with bacterial inoculums, no antibiotics). After incubation 15 μL of WST-8 working solution (3.31 mg/mL WST-8 (Ochem Incorporation), 0.074 mg/mL PES (phenazine ethosulfate)) was added to each well and cells were incubated at 37° C. until GC had desired value. After the reaction took place, the final absorbance was read at 450 nm. For calculations, the value of the GC was set to 100% cell viability and the value of the negative control (no bacteria, SC) was set to 0% cell viability. […]
In order to determine the killing kinetics of AMPDs the amount of living bacteria was measured as a function of time after incubation with the AMPDs. […]

[5] = 5(6)-Carboxyfluorescein leakage from lipid vesicles; conditions: 10 mM TRIS, 107 mM NaCl, pH 7.4; peptide added at 50 s
Method: Preparation A thin lipid film was prepared by evaporating a solution of 25 mg Egg PC or Egg PG in 1 mL MeOH/CHCl3 1/1 on a rotary evaporator (rt) and then in vacuo overnight. The resulting film was hydrated with 1 mL buffer (50 mM CF, 10 mM TIRS, 10 mM NaCl, pH 7.4) for 30 min, subjected to freeze-thaw cycles (7×) and extrusion (15×) through a polycarbonate membrane (pore size 100 nm). Extravesicular components were removed by gel filtration (Sephadex G-50) with 10 mM TRIS, 107 mM NaCl, pH 7.4. Final conditions: ˜2.5 mM Egg PC or Egg PG; inside: 50 mM CF, 10 mM TIRS, 10 mM NaCl, pH 7.4; outside: 10 mM TRIS, 107 mM NaCl, pH 7.4.
Experiment Egg PC or Egg PG stock solutions (37.5 μL) were diluted with a buffer (10 mM TRIS, 107 mM NaCl, pH 7.4) and placed in a thermostated fluorescence cuvette (25° C.) and gently stirred (total volume in the cuvette ˜3000 μL; final lipid concentration ˜31.25 μM). CF efflux was monitored at λem 517 nm (λex 492 nm) as a function of time after addition of 20 μL of peptide dendrimer in buffer (10 mM TRIS, 107 mM NaCl, pH 7.4) with final concentrations of 1, 5, 7.5, 10, 15, 20, 25, 30 μg/mL at t=50 s and 1.2% trition X-100 (30 μL, 0.012% final concentration) at t=300 s. Fluorescence intensities were normalized to fractional emission intensity I(t) using I(t)=(It−I0)/(I∞−I0) where I0 It at peptide dendrimer addition, I∞=It at saturation of lysis.
Bacterial membranes contain relatively large amounts of exposed anionic lipids, while the outer leaflet of the membranes of plants and animals is composed mainly of lipids with no net charge. The charge composition of such membranes can be mimicked with phospholipid vesicles. Large unilamellar vesicles (LUVs) composed of the neutral phospholipid with PC (phosphatidyl choline) or with PG (phosphatidyl glycerol) with negative charges were prepared encapsulating 5(6)-carboxyfluorescein (CF). […] The higher the concentration of MSt-112 the higher is the CF leakage (FIG. 6A). […] Overall the active AMPDs interact with the negatively charged membrane and release the CF.

Polymyxin B [reference compound]
MIC PAO1 ([1]; MH medium, 12-18 h, two independent experiments in triplicate (Table 25)): 1 µg/mL
MIC (MH) ([1]; PAO1, MH medium (Table 24)): 2 µg/mL
MIC PT1482 (A-) [2]: 1 µg/mL
MIC PT1485 (AB-) [2]: <1 µg/mL
MIC (MH + 30% human serum) [3]: 4 µg/mL
killing kinetics (bacterial survival over 24 hours) [4]: kill P. aeruginosa immediately
CF leakage from phosphatidylglycerol LUVs [5]: immediate leakage of CF
